# Data from patent US7709514B2, “Therapeutic molecules and methods-1” (Cortical Pty Ltd, priority 2002, dated 2010).
# What was measured:
# [1] = system: murine peritoneal macrophage nitric oxide production; experiment: inhibition of peritoneal macrophage nitric oxide release (Greiss assay); assay type: cell-based, mice; details: Mus musculus, LPS 10 ng/ml and interferon-γ 10 units/ml, 24 hours, read-out: % Nitrite concentration inhibition from control
# Description: C57BL6/J male mice were injected intraperitoneally with 2 ml of thioglycollate. Five (5) days later peritoneal macrophages were collected by lavaging the peritoneum of anaesthetized mice with 3 ml of cold Hanks buffered saline solution. Cells from several mice were pooled, washed and re-suspended in DMEM supplemented with 5% FCS. Cells were plated in 96 well plastic tissue culture plates at 1×10^5 cells/well. Cells were treated with compound or vehicle for 1 hour in a 5% CO2 incubator at 37° C. Cells were then treated with LPS (10 ng/ml) and recombinant human interferon-γ (10 units/ml) and incubated for 24 hours. After 24 hours, 50 μl of supernatant from each well was carefully removed and transferred to ELISA plates. The concentration of nitrite in culture supernatants was measured by the Greiss assay (27). The results were defined as the percentage inhibition of nitrite concentration in compound-treated cell culture supernatants compared to that of vehicle-treated cells.
# [2] = system: MIF-induced proliferation of S112 human dermal fibroblasts; experiment: dermal fibroblast proliferation induced by recombinant MIF; assay type: cell-based; details: compound 0.013 μM
# Description: The activity of compound 5 was studied in a bioassay utilising MIF-induced proliferation of human dermal fibroblasts. S112 human dermal fibroblasts were propagated in RPMI/10% foetal calf serum (FCS). Prior to experimentation, cells were seeded at 10^5 cells/ml in RPMI/0.1% 13SA for 18 hours. At time point zero, culture medium was replaced with RPMI/10% FCS and treatments administered. Cells were treated with recombinant human macrophage migration inhibitory factor (MIF) 50 ng/ml and/or compound 5 at a 1-1000 molar ratio to the concentration of MIF. At a time point 30 hours later, cells were pulsed with 1 μCi/well of ^3H-thymidine. At a time point 48 hours after commencement of the experiment, cells were harvested using a semi-automated cell harvester. The radioactivity incorporated into DNA was determined by liquid scintillation counting, with results expressed as [^3H] thymidine incorporation.
# [3] = system: murine endotoxic shock model; experiment: murine endotoxic shock model (LPS), cytokines by ELISA; assay type: in vivo, mice
# Description: The activity of compound 5 was studied in the murine endotoxic shock model. This model has been previously shown to be dependent on MIF (21). Administration of a substance which inhibits the cytokine or biological activity of MIF would be expected to result in a reduction in serum levels of cytokines such as IL-1 or IL-6. Endotoxaemia was induced by intra-peritoneal injection of lipopolysaccharide (LPS) (15 mg/kg) in 400 μl saline. Mice were treated with a saline solution (control) only, a saline solution and LPS, or LPS and compound 5 at a dose of 15 mg/kg body weight, administered by intra-peritoneal injection at 24 hours, 12 hours and 1 hour before intra-peritoneal LPS injection. After 1.5 hours mice were humanely killed by CO2 inhalation then neck dislocation. Serum was obtained from blood obtained by cardiac puncture prior to death and measured for cytokines including interleukin 1 (IL-1) and interleukin 6 (IL-6) by ELISA. The production of IL-1 and IL-6 has been previously shown to be dependent on MIF (22). Macrophages were obtained by lavage of the peritoneal cavity using normal saline and placed into 24 well tissue culture plates for 18 hours in RPMI/10% FCS. The cultured peritoneal macrophage supernatants were then analysed for cytokines including IL-6. The peritoneal lavage supernatants were also analysed for cytokines including IL-6.
# The effect of compound 5 was tested under a variety of conditions in animals exposed to endotoxic shock induced as above by the injection of 15 mg/kg LPS by intraperitoneal injection. In each case compounds were administered by intraperitoneal injection at a dose of 15 mg/kg. Compound 5 administration was associated with reductions in serum IL-1, IL-6, and TNF concentration whether administered by intraperitoneal injection (IP) or by oral gavage, and under a variety of administration regimens.
# [4] = system: IL-1-induced COX-2 expression; experiment: IL-1-induced COX-2 expression in S112 human dermal fibroblasts (MIF-dependent bioassay); assay type: cell-based
# Description: The activity of compounds was studied in a bioassay utilising MIF-dependent activation of human dermal fibroblasts. […] IL-1-induced COX-2 expression is therefore a MIF-dependent event. […] Prior to experimentation, cells were seeded at 10^5 cells/ml in RPMI/0.1% BSA for 18 hours. […] After 6 hours, cells were collected and intracellular COX-2 protein determined by permeabilisation flow cytometry. […] Cellular fluorescence was determined using a flow cytometer. At least 5000 events were counted for each reading, each of which was performed in duplicate, and the results expressed in mean fluorescence intensity (MFI) after subtraction of negative control-labelled cell fluorescence. The effect of each compound was determined by subtracting the IL-1+compound-treated cell MFI from the IL-1-treated cell (control) MFI and expressed as % inhibition. In each case the % inhibition of IL-1-induced COX-2 expression is expressed as the mean, or mean±SEM where results are available from multiple experiments.
compound,measurement,setting,value
CCCCCOC(=O)c1ccc2[nH]c(=O)[nH]c2c1 [Compound 5],inhibition at 25 µM,[1]; compound 25 μM,11.1%
same,inhibition at 50 µM,[1]; compound 50 μM,19.7%
same,inhibition at 100 µM,[1]; compound 100 μM,28.6%
same,effect on proliferation of S112 cells treated with recombinant human MIF,[2]; FIG. 12,marked and statistically significant inhibitory effect
same,inhibition at 0.013 µM,"[2]; Homo sapiens, Fibroblast, read-out: % inhibition of MIF-induced proliferation, rhMIF 50 ng/ml, S112, P < 0.001",98%
same,serum IL-1 concentration,"[3]; FIG. 5, LPS alone vs LPS with compound 5",marked reduction
same,"Serum IL-1 at 1.5 h, LPS + cpd","[3]; IP injection 15 mg/kg at −24, −6, −1 h, LPS alone 42.49",39.82
same,"Serum IL-1 at 6 h, LPS + cpd","[3]; IP injection 15 mg/kg at −24, −6, −1 h, LPS alone 786.6",170.2
same,"Serum IL-1 at 1.5 h, LPS + cpd","[3]; IP injection 15 mg/kg at −24, −12, −1 h, LPS alone 484.8",283.8
same,"Serum IL-6 at 1.5 h, LPS + cpd","[3]; IP injection 15 mg/kg at −24, −12, −1 h, LPS alone 92790",75260
same,"Serum IL-6 at 6 h, LPS + cpd","[3]; IP injection 15 mg/kg at −1 h, LPS alone 215100",150300
same,"Serum IL-1 at 1.5 h, LPS + cpd","[3]; IP injection 15 mg/kg at −18 h, LPS alone 301.5",105.9
same,"Serum TNF at 1.5 h, LPS + cpd","[3]; IP injection 15 mg/kg at −18 h, LPS alone 4263",2422
same,Serum IL-6,"[3]; LPS 15 mg/kg IP, compound 15 mg/kg IP at 24, 12 and 1 hour before LPS, 1.5 hours after LPS, LPS only 261.05",99.78 ng/mL
same,Peritoneal lavage IL-6,"[3]; LPS 15 mg/kg IP, compound 15 mg/kg IP at 24, 12 and 1 hour before LPS, LPS only 16.11",7.07 ng/mL
same,Cultured peritoneal macrophage IL-6,"[3]; LPS 15 mg/kg IP, compound 15 mg/kg IP at 24, 12 and 1 hour before LPS, macrophages cultured 18 hours, LPS only 3.40",1.33 ng/mL
same,"serum IL-1, IL-6, and TNF concentration","[3]; LPS 15 mg/kg, IP or oral gavage, variety of administration regimens",reductions
same,"Serum IL-1 at 1.5 h, LPS + cpd","[3]; Oral gavage 5 mg/kg at −24 h, −1 h, LPS alone 237.0",182.5
same,"Serum IL-1 at 1.5 h, LPS + cpd","[3]; Oral gavage 15 mg/kg at −24, −6, −1 h, LPS alone 103.7",47.1
same,"Serum IL-1 at 1.5 h, LPS + cpd","[3]; Oral gavage 15 mg/kg at −24 h, LPS alone 292.0",152.6
same,"Serum IL-6 at 1.5 h, LPS + cpd","[3]; Oral gavage 15 mg/kg at −24 h, LPS alone 121100",80250
same,inhibition at 1 µM,"[4]; Homo sapiens, Fibroblast, compound 1 μM, S112 cells, IL-1 0.1 ng/ml, 6 hours",7.7%
same,inhibition at 10 µM,"[4]; Homo sapiens, Fibroblast, compound 10 μM, S112 cells, IL-1 0.1 ng/ml, 6 hours",21.4%
same,inhibition at 25 µM,"[4]; Homo sapiens, Fibroblast, compound 25 μM, S112 cells, IL-1 0.1 ng/ml, 6 hours",34%
same,inhibition at 50 µM,"[4]; Homo sapiens, Fibroblast, compound 50 μM, S112 cells, IL-1 0.1 ng/ml, 6 hours, read-out: % inhibition of IL-1-induced COX-2 expression",48.4%
same,inhibition at 100 µM,"[4]; Homo sapiens, Fibroblast, compound 100 μM, S112 cells, IL-1 0.1 ng/ml, 6 hours",52.2%
same,% Inhibition of IL-1 induced COX-2 expression,"[4]; Table 2 experiment, Compound 5 50 μM alone",45.1%
